Experimental data as given in paper PMC6508865, “Dynamics of thymol dietary supplementation in quail (Coturnix japonica): Linking bioavailability, effects on egg yolk total fatty acids and performance traits” (PLoS ONE, 2019).
Read-outs that look alike come from different tables or passages of the source.

Assays:
[1] = Thymol quantification in egg yolk (HS-SPME/GC-MS) during chronic dietary supplementation; assay type: in vivo, Coturnix japonica; conditions: for concentration at 2 days of supplementation / concentration at 9 days of supplementation / concentration at 16 days of supplementation / concentration at 26 days of supplementation / concentration at 17 days after supplement withdrawal: female, Japanese quail (Coturnix japonica), egg yolk, oral, read-out: THY concentration in egg yolk
Excerpt: (§1) A total of 50 eighty-five days-old female quail of homogeneous body weights (251 ± 1 g; Mean ± SE) and in their egg-laying peak were selected from an initial group of 96 female individuals. All birds continued receiving a basal diet between 85 and 100 days of age and all variables (see below for details) were registered along this period (Pre-supplementation period, Fig 1). From 100 to 128 days of age (S period, Fig 1), females were randomly assigned to either a chronic dietary supplementation with one of 3 THY doses (THY2, THY4 and THY6; 10 females each) or to one of 2 control groups (basal diet, BASAL, and basal diet with vehicle solution, VEHICLE; 10 females each). Once finished the S period, half of the quail were slaughtered for histological analysis (n = 25; Slaughter 1, Fig 1) and the other half were subjected to a pS period of 21 days, during which all females received the BASAL diet (pS, Fig 1). After this period, the remaining 25 animals were also slaughtered for histological analysis (Slaughter 2, Fig 1). In this way, we assessed whether THY induced changes in variables indicative of tissue damage and if so, whether the potential damages could reverse after 3 weeks of supplement withdrawal.
(§2) To assess changes in egg yolk total FA composition, egg physical characteristics, laying rate, body weight, feed intake and general welfare, during the S and pS periods, five sampling points were defined (Sample points, Fig 1): one initial sample point (at 0 days of S); three sample points during the S period (at 7, 14 and 28 days of S); and one sample point at the end of the pS period (21 days of pS). It should be noted that for determinations of THY concentration, eggs and quail droppings were collected offset from the other variables measured by 2 days, thus were collected on days 2, 9, 16, and 26 days of S, and 17 days of pS, respectively.
Thymol was commercially obtained from Sigma-Aldrich (SAFC®, ⩾99%; FCC, Saint Louis, MO, USA). Supplemented quail were provided 2, 4 or 6.25 g of THY per kg of feed. For this end, THY was prepared in a 2.4, 4.8 and 7.5% w/v ethanolic solution and uniformly sprayed on fresh feed. The feed was prepared and administrated daily, to minimize THY volatilization from feed before its consumption by females. The doses were selected considering two factors. The first, the concentration range for which the transfer of THY to the chicken and/or quail egg has been established. Second, the concentrations of THY supplementation that have shown biological effects. […] In this context, THY4 is and intermediate dose between the last two. Nutrient and FA compositions of the diets supplied were identical between each other and are reported in S1, S2 and S3 Tables, and are in accordance with the National Research Council recommendation.
Egg yolks and droppings of each female were obtained at each sample point (Sample points, Fig 1) and THY concentration was immediately measured by head space-solid phase microextraction followed by gas chromatography-mass spectrometry (HS-SPME/GC-MS) according to Fernandez et al.. SPME was performed with a manual holder with 100 um polydimethylsiloxane (PDMS) fiber. An aliquot of egg yolk (3 g), droppings (5 g) or feed (5 g) was put in a sealed 20 mL glass vial, spiked at the corresponding level with the standard m-cresol (Sigma-Aldrich; ≥ 99% (GC); Saint Louis, MO, USA) stock solution, and vortexed for 5 min. The vials were placed in a water bath and the PDMS fiber was exposed to the headspace for 30 min at 60°C and 5 min at 40°C for egg yolk and droppings or feed, respectively. The fiber was then inserted directly into the GC injector for desorption at 250°C for 10 min in splitless mode. Chromatography analysis was carried out in a Perkin Elmer Clarus 600 equipped with a PSSI injector and a quadrupole MS detector (Perkin Elmer, USA). Turbo Mass 5.4.2 software was used to control and acquire data from GC–MS. […]

[2] = system: female Japanese quail (Coturnix japonica); assay: Female performance traits (body weight, feed intake, egg laying, egg physical characteristics); assay type: in vivo
Excerpt: as §1, §2
Female performance was evaluated through the measurement of body weight, feed intake, egg laying rate, egg physical characteristics and a general welfare quality assessment. Body weight was measured once a week throughout the experimental period. Daily feed intake (DFI) was estimated as the difference between the amount of feed supplied to each animal (60 g) and the rest that remained in the feeders the next day (g of feed/day/quail). Egg laying was registered daily and the weekly laying rate was calculated as: (number of eggs / 7 days) x 100. Egg weight, quality characteristics (such as intact, membranous, soft shell and broken shell), morphometric characteristics (egg shape index = (egg width / egg length) x 100) and percentage of constituents (egg yolk, albumen and shell) were registered at each sampling point.

quail = system: quail; set-up: method as in PMID 28474397; conditions: THY6, 6.25 g of THY per kg of feed; cited from earlier work
female quail = system: female quail; set-up: method as in ref 41 = [41]; 41 Labaque MC , Kembro JM , Luna A , Marin RH . Effects of thymol feed supplementation on female Japanese quail ( Coturnix coturnix ) behavioral fear response . Anim Feed Sci Technol . 2013; 183 ( 1–); conditions: THY2, 2 g of THY per kg of feed; cited from earlier work
[3] = set-up: method as in ref 14 = [14]; 14 Botsoglou N , Yannakopoulos AL , Fletouris DJ , Tserveni-Goussi AS , Fortomaris PD . Effect of dietary thyme on oxidative stability of egg yolk . J Agric Food Chem . 1997; 45 ( 10 ): 3711 – 6 .; conditions: cited from earlier work
[4] = overall mean over BASAL, VEHICLE and 2, 4, 6.25 g thymol/kg feed diets and five sampling times, no effect of diet

Percentage of THY transferred to egg yolk in relation to the amount ingested ([1]; THY2, 2 g of thymol/kg of feed, 2 days of S): 0.02%
Percentage of THY transferred to egg yolk in relation to the amount ingested ([1]; THY2, 2 g of thymol/kg of feed, 9 days of S): 0.23%
Percentage of THY transferred to egg yolk in relation to the amount ingested ([1]; THY2, 2 g of thymol/kg of feed, 16 days of S): 0.22%
Percentage of THY transferred to egg yolk in relation to the amount ingested ([1]; THY2, 2 g of thymol/kg of feed, 26 days of S): 0.25%
Percentage of THY transferred to egg yolk in relation to the amount ingested ([1]; THY2, 2 g of thymol/kg of feed, pS, 17 days of supplement withdrawal): 0.03%
Percentage of THY transferred to egg yolk in relation to the amount ingested ([1]; THY4, 4 g of thymol/kg of feed, 2 days of S): 0.01%
Percentage of THY transferred to egg yolk in relation to the amount ingested ([1]; THY4, 4 g of thymol/kg of feed, 9 days of S): 0.17%
Percentage of THY transferred to egg yolk in relation to the amount ingested ([1]; THY4, 4 g of thymol/kg of feed, 16 days of S): 0.17%
Percentage of THY transferred to egg yolk in relation to the amount ingested ([1]; THY4, 4 g of thymol/kg of feed, 26 days of S): 0.16%
Percentage of THY transferred to egg yolk in relation to the amount ingested ([1]; THY4, 4 g of thymol/kg of feed, pS, 17 days of supplement withdrawal): 0.02%
Percentage of THY transferred to egg yolk in relation to the amount ingested ([1]; THY6, 6.25 g of thymol/kg of feed, 2 days of S): 0.02%
Percentage of THY transferred to egg yolk in relation to the amount ingested ([1]; THY6, 6.25 g of thymol/kg of feed, 9 days of S): 0.14%
Percentage of THY transferred to egg yolk in relation to the amount ingested ([1]; THY6, 6.25 g of thymol/kg of feed, 16 days of S): 0.13%
Percentage of THY transferred to egg yolk in relation to the amount ingested ([1]; THY6, 6.25 g of thymol/kg of feed, 26 days of S): 0.13%
Percentage of THY transferred to egg yolk in relation to the amount ingested ([1]; THY6, 6.25 g of thymol/kg of feed, pS, 17 days of supplement withdrawal): 0.03%
THY transferred to the egg yolk, of the amount THY ingested ([1]; during the plateau, across THY2, THY4, THY6): 0.13–0.25%
highest concentration of THY detected in egg yolk, molar equivalent ([1]; equivalent of 406 ng/g of egg yolk): ~ 3.05 uM
concentration at 2 days of supplementation ([1]; 2 g/kg of feed, THY2, 2 g of thymol/kg of feed, 2 days of S): 12.5 ng/g
concentration at 9 days of supplementation ([1]; 2 g/kg of feed, THY2, 2 g of thymol/kg of feed, 9 days of S): 156 ng/g
concentration at 16 days of supplementation ([1]; 2 g/kg of feed, THY2, 2 g of thymol/kg of feed, 16 days of S): 150 ng/g
concentration at 26 days of supplementation ([1]; 2 g/kg of feed, THY2, 2 g of thymol/kg of feed, 26 days of S): 169 ng/g
concentration at 17 days after supplement withdrawal ([1]; 2 g/kg of feed, THY2, 2 g of thymol/kg of feed, pS, 17 days of supplement withdrawal): 17.9 ng/g
concentration at 2 days of supplementation ([1]; 4 g/kg of feed, THY4, 4 g of thymol/kg of feed, 2 days of S): 26.1 ng/g
concentration at 9 days of supplementation ([1]; 4 g/kg of feed, THY4, 4 g of thymol/kg of feed, 9 days of S): 297 ng/g
concentration at 16 days of supplementation ([1]; 4 g/kg of feed, THY4, 4 g of thymol/kg of feed, 16 days of S): 295 ng/g
concentration at 26 days of supplementation ([1]; 4 g/kg of feed, THY4, 4 g of thymol/kg of feed, 26 days of S): 282 ng/g
concentration at 17 days after supplement withdrawal ([1]; 4 g/kg of feed, THY4, 4 g of thymol/kg of feed, pS, 17 days of supplement withdrawal): 36.3 ng/g
concentration at 2 days of supplementation ([1]; 6.25 g/kg of feed, THY6, 6.25 g of thymol/kg of feed, 2 days of S): 42.9 ng/g
concentration at 9 days of supplementation ([1]; 6.25 g/kg of feed, THY6, 6.25 g of thymol/kg of feed, 9 days of S): 407 ng/g
concentration at 16 days of supplementation ([1]; 6.25 g/kg of feed, THY6, 6.25 g of thymol/kg of feed, 16 days of S): 372 ng/g
concentration at 26 days of supplementation ([1]; 6.25 g/kg of feed, THY6, 6.25 g of thymol/kg of feed, 26 days of S): 377 ng/g
concentration at 17 days after supplement withdrawal ([1]; 6.25 g/kg of feed, THY6, 6.25 g of thymol/kg of feed, pS, 17 days of supplement withdrawal): 69.5 ng/g
highest concentration of THY detected in egg yolk ([1]; highest of the study): ~406 ng/g of egg yolk
SMILES: Cc1ccc(C(C)C)c(O)c1 [THY, 2 isopropyl-5-methylphenol]
effect on physical egg traits ([2]; 2, 4, 6.25 g of THY/kg feed): did not affect
effect of the diet supplied on performance variables (body weight, feed intake, egg laying, morphometric characteristics and constituents of eggs) ([2]; 2, 4, 6.25 g of THY/kg feed vs controls, 28 days S and 21 days pS): no effects
Egg shape index ([2]; (egg width / egg length) x 100, overall mean over BASAL, VEHICLE and 2, 4, 6.25 g thymol/kg feed diets and five sampling times, no effect of diet): 79.5%
daily feed intake ([2]; no differences between treatments, all diets): 30.3 ± 1 g/day/animal
Egg albumen [2, 4]: 48.6%
Egg shell [2, 4]: 14.4%
Egg weight [2, 4]: 11.3 g
Egg yolk [2, 4]: 37.0%
Weekly Body Weight per individual [2, 4]: 254 g
Weekly Feed Intake per individual [2, 4]: 212 g
Cumulative number of eggs ([2]; overall mean over BASAL, VEHICLE and 2, 4, 6.25 g thymol/kg feed diets, no effect of diet): 42
PUFA and SFA in yolk total fatty acids and triglycerides of the quail fertile egg (quail): enhances PUFA deposition to the detriment of SFA
bird's locomotor activity (female quail): without affecting
female quail fear responses when exposed to stressful situations (female quail): reduces female quail fear responses
concentration of THY needed to be added to a control yolk for antioxidant activity equivalent to a yolk from a thyme treated hen [3]: 278 ug of THY/g of yolk
